Data from article PMC12514245, “Impaired migration and lung invasion of human melanoma by a novel small molecule targeting the transmembrane domain of death receptor p75^NTR” (EMBO Molecular Medicine, 2025).
Values joined by “and” are separate entries in the source; they are usually repeats but may differ in a detail not shown here. Equal values may be shown once.

What was measured:
[1] = test system: A875 shp75 knock-down cells; experiment: Cleaved PARP western blot (apoptosis), A875 shp75; type: cell-based, human
Method: One of the main biological readouts of p75^NTR activity in response to neurotrophins is the induction of caspase-mediated apoptotic cell death (Underwood and Coulson, [2008]; Friedman, [2010]; Ibáñez and Simi, [2012]).
COS7, A875 and WM115 cell lines were cultured under standard conditions in DMEM supplemented with 10% fetal calf serum, 100 units/ml penicillin, […] streptomycin, and 2.5 mM glutamine. All cells were authenticated and tested for mycoplasma contamination. A875-NT (control) and A875 shp75 (knockdown) cell lines were described previously (Goh et al, [2018]).

A875 NT cells = experiment: Filopodia per cell (phalloidin staining), A875 NT; type: cell-based, human; settings: for Filopodia per cell, mean of the well: EXP1 NT; for Filopodia per cell, mean of experiment: EXP1-EXP3; for Filopodia per cell, mean of three experiments: mean of EXP1-3
Method: For assessment of actin filaments, A875 cells were plated on glass coverslips in 24-well plate at a confluency of 3 × 10^4 cells/well. One day after plating, the cells were treated with 1 μM or 5 μM Np75-4A22 and NGF (100 ng/ml) or PBS for 24 h. Cells were fixed in 4% paraformaldehyde, permeabilized in 0.1% Triton-X-100, stained with Phalloidin-iFluor 488 (Abcam) at 1:2000 dilution and DAPI for 1 h. Coverslips were mounted and visualized in a laser confocal microscope.

[2] = type: in vivo; settings: oral 200 mg/kg/day
[3] = test system: A875-shp75 melanoma xenograft; experiment: Melanoma lung invasion assay, A875-shp75, treatment from one day before cell injection; type: in vivo, SCID mice
Method: Next, to assess the potential inhibitory effects of Np75-4A22 on melanoma cell migration and tissue invasion in vivo, we utilized the highly metastatic human A875 xenograft model. […] Initially, to mimic metastatic dissemination from the primary tumor site, A875-NT or A875-shp75 cells expressing GFP-Luc (for live-monitoring of tumor growth) were injected intravenously in female SCID mice 24 h following a single oral administration of Np75-A422 (200 mg/kg) or drug vehicle alone. Mice received 3 cycles of Np75-A422 (200 mg/kg/day) following a 5 day on and 2 days off drug schedule for a total of 3 weeks (Fig. 8A). Metastatic spread to the lungs was monitored weekly by luciferase activity using the Xenogen IVIS-200 Optical in vivo luciferase imaging system and mice were sacrificed after the third week. […] In addition, assessment of the metastatic spread was also quantified by histological assessment of non-consecutive lung sections stained for human nucleolin to detect the tumor cells. […] In addition, and as expected, high expression of p75^NTR was detected in lung tumors established by A875-NT cells but was negligible in tumors derived from A875-shp75 cells (Fig. EV10).
Eight-week-old female SCID mice (Charles River Laboratories, Shrewsbury, MA, USA) were housed in groups of three to five and maintained on a 12-h light/dark schedule with a temperature of 22 °C ± 1 °C and a relative humidity of 50% ± 5%. Food and water were available ad libitum. This research study was reviewed and approved by the University of Calgary Animal Care Committee (AC22-0054) and McGill University (AUP-JGH-8269) and adheres to established ethical principles and guidelines. A875-GFPLuc (A875-NT) or A875-GFPLuc shp75 (A875-shp75) cells harvested using Puck’s EDTA were resuspended in PBS and injected intravenously into SCID mice (5 × 10^5 cells/200 μl per mouse). Np75-4A22 was dissolved in 0.5% sodium carboxymethyl cellulose (NaCMC) in reverse osmosis H2O and administered by oral gavage at 200 mg/kg/day starting one day prior to intravenous (tail vein) injection of tumor cells and continued for 3 1-week cycles (cycle: 5 days on drug, 2 days off drug). Tumor spread to the lung was monitored weekly by luciferase activity using the Xenogen IVIS-200 Optical in vivo luciferase imaging system as described previously (Lun et al, [2016]) and by immunohistochemistry (IHC) at designated time points. IHC was performed after formalin fixation, paraffin embedding and sectioning of the lungs, using a human-specific mouse polyclonal nucleolin antibody (1:500 dilution) and detected using Dako liquid DAB+ Substrate Chromogen System (Dako: k3468, California, USA) followed by a hematoxylin counterstain (Sigma, Oakville, ON, Canada). Sections were mounted and imaged on an Olympus phase contrast microscope (Olympus Life Science, Tokyo, Japan). For immunofluorescence, sections were stained with anti-human nucleolin and anti-human p75NTR antibodies (1:1000 dilution), subsequently detected with 1:200 dilutions of Alexa Fluor™ 488 Goat anti-Mouse IgG (H + L) Highly Cross-Adsorbed Secondary Antibody and Alexa Fluor™ 568 Goat anti-Rabbit IgG (H + L) Cross-Adsorbed Secondary Antibody. Sections were further stained with DAPI to detect all nuclei. Between each treatment, TBS Automation Wash Buffer (Biocare Medical TWB945M) was employed. Images were taken with LSM800 confocal microscope and ZEN system.

[4] = 1 uM 4A22 with 100 ng/ml NGF, A875 NT
[5] = 5 uM 4A22 with 100 ng/ml NGF, A875 NT

## Oc1ccc(-c2cncc(Nc3ccc(Br)c(Cl)c3)n2)cc1 [Div17E5]
[1]
  apoptosis (cleavage of PARP) after p75NTR knock-down: significantly reduced the pro-apoptotic effects

## Cc1cccc(-c2cncc(Nc3ccc(Br)c(Cl)c3Cl)n2)c1C [Np75-4A22]
A875 NT cells; 1 uM 4A22 + 100 ng/ml NGF
  Filopodia per cell, mean of the well: 24.0741 and 41.2222 and 33.1667 and 30.2857
A875 NT cells; 1 uM 4A22, A875 NT
  Filopodia per cell, mean of experiment: 30.1580 and 35.6954 and 33.9792
  Filopodia per cell, mean of three experiments: 33.2775
  Filopodia per cell, mean of well: 25.1429 and 30.1667 and 33.5 and 37.8333 and 34.4167
A875 NT cells; 1 uM 4A22, A875 NT, per image of a well
  Filopodia per cell (Filopodia / cell), single image: 35
A875 NT cells; 1 uM 4A22
  Filopodia per cell, mean of the well: 33.2292 and 40 and 23.375 and 24.0278
A875 NT cells; [4]
  Filopodia per cell, mean of experiment: 32.1872 and 28.1825 and 34.5833
  Filopodia per cell, mean of three experiments: 31.6510
  Filopodia per cell, mean of well: 24.6905 and 26.2143 and 30.7143 and 34.6667 and 32.8333 and 35 and 35.8333
A875 NT cells; 5 uM 4A22, A875 NT
  Filopodia per cell, mean of experiment: 31.8244 and 33.2924 and 31.8750
  Filopodia per cell, mean of three experiments: 32.3306
  Filopodia per cell, mean of well: 30.0714 and 40.9286 and 30.3571 and 31.8125 and 34.9167 and 27.4167 and 31.1667 and 34
A875 NT cells; 5 uM 4A22
  Filopodia per cell, mean of the well: 26.1667 and 28.75 and 43.1667 and 29.2143
A875 NT cells; [5]
  Filopodia per cell, mean of experiment: 28.5179 and 33.2679 and 34.0625
  Filopodia per cell, mean of three experiments: 31.9494
  Filopodia per cell, mean of well: 33.2976 and 34 and 40.1786 and 25.5952 and 29.75 and 31.9167 and 35.9167 and 38.6667
A875 NT cells; 1 or 5 μM
  filopodia per cell, compound alone: no effects per se
A875 NT cells; 1 or 5 μM, NGF 100 ng/ml
  NGF-induced filopodia per cell: completely abolished the effects of NGF
[2]; 21 consecutive days, females and males
  mortality, repeated dose: No mortality
[2]; 21 days, females
  treatment-related effects, repeated dose, females: mild decrease in lymphocyte cellularity and increase granulopoiesis
[2]; 21 days, males
  treatment-related effects, repeated dose, males: no treatment-related effects
[3]; A875-shp75, average of 5 non-consecutive slides per individual mouse
  Metastatic Nodules/Lung Section, Average: 1.2 and 0.8 and 0.4 and 0.2 and 1.8 and 0.6 and 10.6
[3]; A875-shp75, average of 5 slides of one mouse
  Cancer Cells/Lung Section, Average per mouse: 7 and 6 and 2.8 and 3.2 and 3.6 and 25.6 and 1.6 and 13 and 132.2
[3]; A875-shp75, average of all mice
  Cancer Cells/Lung Section, group Average: 21.6667
[3]; A875-shp75, average over all mice of the group
  Metastatic Nodules/Lung Section, group Average: 1.8
[3]; A875-shp75, individual mouse, slide 1 of 5 non-consecutive slides/mouse
  Metastatic Nodules/Lung Section, Slide 1: 2 and 1 and 0 and 6
[3]; A875-shp75, individual mouse, slide 2 of 5 non-consecutive slides/mouse
  Metastatic Nodules/Lung Section, Slide 2: 2 and 0 and 1 and 3 and 14
[3]; A875-shp75, individual mouse, slide 3 of 5 non-consecutive slides/mouse
  Metastatic Nodules/Lung Section, Slide 3: 1 and 0 and 2 and 18
[3]; A875-shp75, individual mouse, slide 4 of 5 non-consecutive slides/mouse
  Metastatic Nodules/Lung Section, Slide 4: 1 and 0 and 2 and 12
[3]; A875-shp75, individual mouse, slide 5 of 5 non-consecutive slides/mouse
  Metastatic Nodules/Lung Section, Slide 5: 0 and 1 and 3
[3]; oral 200 mg/kg/day, 3 weeks
  p75NTR-negative lung tumors: not significantly affected
